Literature values, collected in patent US20070043208A1, “Crystal structure of erythrocyte binding domain of EBA-175” (priority 2003, published 2007).

Tested on: P. falciparum
Settings: DNA plasmid prime and recombinant protein boost regimen

## RII: 73 kDa erythrocyte-binding domain (616 amino acid fragment) of P. falciparum EBA-175
  monkeys protected from P. falciparum challenge: 3 of 4
